Experimental data from ChEMBL document CHEMBL5584352, “Targeted Discovery of a Natural ortho-Quinone Methide Precursor and Green Generation of Its Oligomers” (J Nat Prod, 2024).
Converted amounts (≈) assume the structure as drawn. The source made the active and inactive calls. No cut-off for these calls is given here.

Columns and labels:
[1] = tested on: Escherichia coli; test: Antibacterial activity against Escherichia coli ATCC 0111 assessed as reduction in bacterial growth incubated for 24 hrs by two fold serial dilution method; type: functional, organism-based
[2] = tested on: Staphylococcus aureus; test: Antibacterial activity against Staphylococcus aureus 209P assessed as reduction in bacterial growth incubated for 24 hrs by two fold serial dilution method; type: functional
[3] = tested on: HeLa; test: Cytotoxicity against human HeLa cells assessed as reduction in cell viability incubated for 24 hrs by MTT assay; type: functional, cell-based

Structure (SMILES) | Activity [1] | Activity [2] | Activity [3] | MIC [2] | IC50 [3]
Cc1c(C)c(C(=O)O)c(O)c(C)c1O | inactive | inactive | inactive |  | 
CC(=O)[C@@H](C)c1cc(O)c(CO)c(O)c1C=O | inactive | inactive | inactive |  | 
CC(=O)[C@@H](C)c1cc(O)c(Cc2c(O)cc(O)c(Cc3c(O)cc([C@H](C)C(C)=O)c(C=O)c3O)c2C)c(O)c1C=O | inactive | inactive | inactive |  | 
CC(=O)[C@@H](C)c1cc(O)c(Cc2c(O)cc(O)c3c(O)c4c(=O)cc(C)oc4cc23)c(O)c1C=O | inactive | inactive | inactive |  | 
CC(=O)[C@@H](C)c1cc(O)c(Cc2c(C)c(C)c(O)c(C)c2O)c(O)c1C=O | inactive | inactive | inactive |  | 
CC(=O)[C@@H](C)c1cc(O)c(C)c(O)c1C=O | inactive | inactive | inactive |  | 
CC(=O)[C@@H](C)c1cc(O)c(Cc2c(C)cc(O)cc2O)c(O)c1C=O | inactive | inactive | inactive |  | 
Cc1cc(=O)c2c(O)c3c(O)cc(O)cc3cc2o1 | inactive | inactive | inactive |  | 
Cc1cc(O)c(C)c(O)c1C | inactive | inactive | inactive |  | 
CC(=O)[C@@H](C)c1cc(O)c(Cc2c3cc(O)cc(O)c3c(O)c3c(=O)cc(C)oc23)c(O)c1C=O | inactive |  |  | 32 µg/mL (≈ 66.9 µM) | 12.4 µM
